For 20 molecules, IC50 results are on record in patent US8097733B2, “Pyrazole derivatives as 5-LO-inhibitors” (Pfizer Inc., priority 2007, dated 2012).

The IC50 is the concentration that gives 50% inhibition.

The target of one assay is T1, recombinant human 5-LOX (Homo sapiens, UniProt P09917).
T1 sequence (P09917 1-674): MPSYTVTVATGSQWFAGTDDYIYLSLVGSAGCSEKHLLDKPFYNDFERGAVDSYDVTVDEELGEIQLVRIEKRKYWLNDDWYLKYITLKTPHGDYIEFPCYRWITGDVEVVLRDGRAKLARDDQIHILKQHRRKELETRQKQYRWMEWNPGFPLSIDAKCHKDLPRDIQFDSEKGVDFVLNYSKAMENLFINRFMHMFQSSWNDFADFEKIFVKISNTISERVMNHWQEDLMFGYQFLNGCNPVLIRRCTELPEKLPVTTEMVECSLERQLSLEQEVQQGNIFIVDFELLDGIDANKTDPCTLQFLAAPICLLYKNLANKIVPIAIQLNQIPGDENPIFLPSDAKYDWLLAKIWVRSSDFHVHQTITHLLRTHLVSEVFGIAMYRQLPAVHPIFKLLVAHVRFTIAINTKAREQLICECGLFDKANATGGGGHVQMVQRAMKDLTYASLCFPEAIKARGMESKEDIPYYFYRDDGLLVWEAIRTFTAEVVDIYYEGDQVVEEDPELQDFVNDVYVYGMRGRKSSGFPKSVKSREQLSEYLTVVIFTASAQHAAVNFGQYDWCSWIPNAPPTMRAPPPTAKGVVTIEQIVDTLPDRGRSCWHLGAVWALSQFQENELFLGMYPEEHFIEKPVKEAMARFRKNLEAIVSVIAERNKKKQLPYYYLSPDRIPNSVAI
Briefly: Fluorescence Intensity 5-LOX Enzyme Assay. Type of assay: biochemical. Conditions: crude lysate of recombinant human 5-LOX; highest inhibitor concentration tested typically 25 μM. The text has this:
Bio Data Assays for Allergic and Non Allergic Airways Diseases Fluorescence Intensity 5-LOX Enzyme Assay
The enzyme assay is based on the oxidation of the non-fluorescent compound 2′7′-dichlorodihydrofluorescein diacetate (H2DCFDA) to the fluorescent 2′,7′-dichlorofluorescein by 5-LOX in an arachidonic acid-dependent reaction. Ester cleavage of the acetate groups of the substrate H2DCFDA must occur prior to oxidation. This is achieved through use of a crude cell lysate preparation of recombinant human 5-LOX. The enzyme assay ([…]) contained 50 mM Tris (pH 7.5), 2 mM CaCl2, 2 mM EDTA, 3 μM arachidonic acid (Nu-Chek Prep; #S-1133), 10 μM ATP, 10 μM H2DCFDA (Invitrogen; #D399), inhibitor (varying concentration) and recombinant human 5-LOX enzyme (1.25 μL crude lysate per well).
Inhibitors (dissolved in DMSO) were plated into a 384-well assay plate (Corning #3654) at 1 μL followed by a 20 μL addition of a solution containing 5-LO enzyme and H2DCFDA. Enzyme and H2DCFDA were pre-incubated for 5 min to allow time for acetate group cleavage of the dye prior to addition to the assay plate. After a 10 min pre-incubation of inhibitor and enzyme/dye mix, the assay was initiated by the addition of a substrate solution containing arachidonic acid and ATP. The enzymatic reaction was run for 20 min at room temperature and terminated by the addition of 40 μL of acetonitrile. Assay plates were read in a plate reader using standard wavelengths for fluorescein. IC50s of inhibitors were calculated using a 4-parameter fit using 7 inhibitor concentrations in duplicate with 3-fold serial dilutions. Controls on each plate included no inhibitor (zero percent effect) and 25 μM C J-13610 (one hundred percent effect). The highest inhibitor concentration tested was typically 25 μM. The final DMSO concentration in the assay was 2.5%.

Assay [1] concerns human whole blood (leukotriene and prostaglandin levels). Briefly: Eicosanoid production from human whole blood. It is filed as cell-based. Conditions: human whole blood stimulated with calcium ionophore A23187 and arachidonic acid; ELISA. As to the method: Human whole blood is collected in 10 ml heparin tubes (Vacutainer, Becton Dickenson). Collected blood is pooled and 80 μL is dispensed into each well of 384 well polypropylene plates. A PlateMate is used to add 2 μL of compound solution in DMSO to the 80 μL of blood in the polypropylene plates. The plate, with blood and compound added, is incubated at room temperature for 10 minutes. 2 μL of a calcimycin (800 ng/ml) (A23187 C-7522, Sigma) and arachidonic acid (30 μM) (NU-Chek PREP, INC. S-1133) solution in 60% ethanol is then added to the blood using a Micromultidrop. The plates are then incubated at 37° C. in a shallow water bath for 15 minutes. Plates are then spun at 800 g for 10 minutes at 4° C. Supernatant is removed and assayed by Elisa (Caymen Chemical).
Eicosanoid Production from Human Whole Blood:
Human whole blood was collected from healthy or asthmatic human donors in 10 ml heparinized tubes (Vacutainer tubes; Becton Dickenson, Franklin Lakes, N.J.). Collected blood was pooled and 80 μL was dispensed into each well of 384 well polypropylene plates using a Multi-prop™ 384-well dispenser (Titertek, Huntsville, Ala.). Varying concentrations of compounds were dissolved in DMSO then 2 μL/well was added to the blood using a PlateMate Plus™ automated pipetting station (Matrix Technologies, Hudson, N.H.). The compounds were preincubated with the blood at room temperature for 10 minutes followed by stimulation with 40 μM calcium ionophore (A23187, Sigma Chemical Co, St. Louis, Mo., Cat. # C-7522) and 30 μM arachidonic acid (S-1133, NU-Chek PREP, Inc., Elysian, MN, Cat. # S-1133) dissolved in 60% ethanol. After 15 min incubation at 37° C. in a shallow water bath, the blood was centrifuged at 8009 for 10 minutes at 4° C., the supernatants collected, and leukotriene and prostaglandin levels measured by ELISA according to the manufacturer's directions (Cayman Chemical Company, Ann Arbor, Mich.). The assay was performed at a final concentration of 2.5% DMSO.

`C[C@H]1C[C@@](C#N)(c2cccc(Sc3ccc(-c4ccnn4C)cc3F)c2F)CCO1` [Example 25]: the IC50 at recombinant human 5-LOX was found to be 32.9 nM; in assay [1], 83.6 nM.
As for `C[C@H]1C[C@@](C(N)=O)(c2cccc(Sc3ccc(-c4ccnn4C)cc3F)c2F)CCO1` [Example 26, (2S,4R)-4-(2-fluoro-3-(2-fluoro-4-(1-methyl-1H-pyrazol-5-yl)phenylthio)phenyl)-2-methyl-tetrahydro-2H-pyran-4-carboxamide], the IC50 at recombinant human 5-LOX was 28.4 nM; in assay [1] it was 690 nM.
In the same order, the values of `C[C@H]1C[C@@](C(N)=O)(c2cccc(Sc3ccc(-c4ccnn4C)c(F)c3)c2)CCO1` [Example 30, (2S,4R)-4-(3-(3-fluoro-4-(1-methyl-1H-pyrazol-5-yl)phenylthio)phenyl)-2-methyl-tetrahydro-2H-pyran-4-carboxamide] are 14 nM and 200 nM.
`C[C@H]1C[C@@](C(N)=O)(c2cccc(Sc3ccc(-c4ccnn4C)c(F)c3)c2F)CCO1` [Example 31, (2S,4R)-4-(2-fluoro-3-(3-fluoro-4-(1-methyl-1H-pyrazol-5-yl)phenylthio)phenyl)-2-methyl-tetrahydro-2H-pyran-4-carboxamide]: the values for the IC50 (on recombinant human 5-LOX; in assay [1]) were 15.5 nM and 337 nM, respectively.
For the molecule `C[C@H]1C[C@@](C(N)=O)(c2cc(F)cc(Sc3ccc(-c4ccnn4C)c(F)c3)c2)CCO1` [Example 32, (2S,4R)-4-(3-fluoro-5-(3-fluoro-4-(1-methyl-1H-pyrazol-5-yl)phenylthio)phenyl)-2-methyl-tetrahydro-2H-pyran-4-carboxamide], the concentration for half-maximal inhibition (IC50) worked out at 16.8 nM at recombinant human 5-LOX and 232 nM in assay [1].
With `Cn1nccc1Cc1ccc(Sc2cccc(C3(C(N)=O)CCOCC3)c2)cc1` [Example 35, 4-[3-({4-[(1-methyl-1H-pyrazol-5-yl)methyl]phenyl}thio)phenyl]tetrahydro-2H-pyran-4-carboxamide], the 50% inhibitory concentration (IC50) on recombinant human 5-LOX stood at 313 nM; in assay [1] it was 769 nM.
The matching figures for `Cn1nccc1C(=O)c1ccc(Sc2cccc(C3(C(N)=O)CCOCC3)c2)cc1Cl` [Example 36]: 188 nM and 466 nM.
On to `Cn1nccc1C(=O)c1ccc(Sc2cccc(C3(C(N)=O)CCOCC3)c2)cc1C(F)(F)F` [Example 37, 4-[3-({4-[(1-methyl-1H-pyrazol-5-yl)carbonyl]-3-(trifluoromethyl)phenyl}thio)phenyl]tetrahydro-2H-pyran-4-carboxamide], for which the 50% inhibitory concentration (IC50) at recombinant human 5-LOX came to 60.7 nM; in assay [1], 394 nM.
With `Cn1nccc1C(=O)c1ccc(Sc2cccc(C3(C(N)=O)CCOCC3)c2)cc1C#N` [Example 38, 4-[3-({3-cyano-4-[(1-methyl-1H-pyrazol-5-yl)carbonyl]phenyl}thio)phenyl]tetrahydro-2H-pyran-4-carboxamide], the values for the 50% inhibitory concentration (IC50) (on recombinant human 5-LOX; in assay [1]) were 469 nM and 640 nM, respectively.
For `Cn1nccc1C(=O)c1ncc(Sc2cccc(C3(C(N)=O)CCOCC3)c2)cc1Cl` [Example 42, 4-(3-(5-chloro-6-(1-methyl-1H-pyrazole-5-carbonyl)pyridin-3-ylthio)phenyl)-tetrahydro-2H-pyran-4-carboxamide], the concentration for half-maximal inhibition (IC50) at recombinant human 5-LOX is 737 nM; in assay [1] it was 851 nM.
The matching figures for `COc1ccc(C2(C#N)CCOCC2)cc1Sc1ccc(-c2ccnn2C)cc1` [Example 43, 4-(4-methoxy-3-(4-(1-methyl-1H-pyrazol-5-yl)phenylthio)phenyl)-tetrahydro-2H-pyran-4-carbonitrile]: 575 nM and 913 nM.
The matching figures for `COc1ccc(C2(C(N)=O)CCOCC2)cc1Sc1ccc(-c2ccnn2C)cc1` [Example 44, 4-(4-methoxy-3-(4-(1-methyl-1H-pyrazol-5-yl)phenylthio)phenyl)-tetrahydro-2H-pyran-4-carboxamide]: 138 nM and 866 nM.
In the same order, the values of `Cn1nccc1-c1ccc(Sc2cccc(C3(C#N)CCOCC3)c2F)c(F)c1` [Example 45, 4-(2-fluoro-3-(2-fluoro-4-(1-methyl-1H-pyrazol-5-yl)phenylthio)phenyl)tetrahydro-2H-pyran-4-carbonitrile] are 84 nM and 33 nM.
As for `Cn1nccc1-c1ncc(Sc2cccc(C3(C#N)CCOCC3)c2)cc1Cl` [Example 47, 4-(3-{[5-chloro-6-(1-methyl-1H-pyrazol-5-yl)pyridin-3-yl]thio}phenyl)tetrahydro-2H-pyran-4-carbonitrile], the half-maximal inhibitory concentration (IC50) at recombinant human 5-LOX amounted to 7770 nM; in assay [1], 676 nM.
As for `Cn1nccc1-c1ccc(Sc2cccc(C3(C#N)CCOCC3)c2)cc1` [Example 49, 4-(3-{[4-(1-methyl-1H-pyrazol-5-yl)phenyl]thio}phenyl)tetrahydro-2H-pyran-4-carbonitrile], the half-maximal inhibitory concentration (IC50) on recombinant human 5-LOX came to 2710 nM; in assay [1], 999 nM.
Turning to `C[C@H]1C[C@@](C#N)(c2cccc([S+]([O-])c3ccc(-c4ccnn4C)cc3)c2F)CCO1` (stereo partly drawn) [Example 54, (2S,4R)-4-(2-fluoro-3-(4-(1-methyl-1H-pyrazol-5-yl)phenylsulfinyl)phenyl)-2-methyl-tetrahydro-2H-pyran-4-carbonitrile], the half-maximal inhibitory concentration (IC50) was found to be 447 nM on recombinant human 5-LOX and 1160 nM in assay [1].
The matching figures for `CCc1cn[nH]c1-c1ccc(Sc2cccc(C3(C(N)=O)CCOCC3)c2)cc1` [Example 59, 4-(3-{[4-(4-ethyl-1H-pyrazol-5-yl)phenyl]thio}phenyl)tetrahydro-2H-pyran-4-carboxamide]: 816 nM and 890 nM.
As to `NC(=O)C1(c2cccc(Sc3ccc(-c4[nH]ncc4Br)cc3)c2)CCOCC1` [Example 60, 4-(3-{[4-(4-bromo-1H-pyrazol-5-yl)phenyl]thio}phenyl)tetrahydro-2H-pyran-4-carboxamide], the IC50 at recombinant human 5-LOX turned out to be 608 nM; in assay [1], 1400 nM.
Take `Cn1nccc1Oc1ncc(Sc2cccc(C3(C(N)=O)CCOCC3)c2F)cc1Cl` [Example 61, 4-[3-({5-chloro-6-[(1-methyl-1H-pyrazol-5-yl)oxy]pyridin-3-yl}thio)-2-fluorophenyl]tetrahydro-2H-pyran-4-carboxamide]: the values for the half-inhibitory concentration (IC50) (on recombinant human 5-LOX; in assay [1]) were 327 nM and 2160 nM, respectively.
In the same order, the values of `Cn1nccc1C(=O)c1ccc(Sc2cccc(C3(C#N)CCOCC3)c2)cc1` [Example 62, 4-[3-({4-[(1-methyl-1H-pyrazol-5-yl)carbonyl]phenyl}thio)phenyl]tetrahydro-2H-pyran-4-carbonitrile] are 2160 nM and 1490 nM.
